Among the data in PubChem BioAssay AID179 (DTP/NCI, 2004) are EC50, IC50 and outcome values, retold here.

The subject of the assay is CEM cells HIV-1 protection, formazan growth assay. Description: NCI AIDS Antiviral Assay. The settings on record: for pIC50: measured here: growth of uninfected CEM cells. In outline:
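Category rules: moderately active means at least 50% protection on retest, and confirmed active means 100% protection reproducibly. The underlying data came from a formazan growth assay in HIV-1-infected CEM cells.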

pEC50, pIC50: −log10 of the molar value. Values joined by “and” are separate entries in the source; they are usually repeats but may differ in a detail not shown here. Equal values may be shown once. Active and inactive are the calls of the source.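 The calls were made as follows: active = compounds giving half or more protection of infected cells from virus-caused growth loss, again on retest; inactive = the rest.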

As for `Cn1c(=O)cc(NCc2ccc(Cl)cc2)[nH]c1=O`, the pEC50 (in general, the EC50 on a negative log10 scale, so that one unit is a factor of ten) is less than 3.70 and the pIC50 (commonly −log10 of the IC50, conventionally taken in molar units) was 3.71.
As to `COC(=O)CCC1(C)C2CCC1(C)/C(=N/O)C2` (stereo not drawn), the pEC50 was less than 3.70 and the pIC50 is less than 3.70.
For the compound `O=c1oc2cccnc2n1CCN1CCN(c2ccc(Oc3ccccc3)cc2)CC1`, the pEC50 is less than 3.70 and the pIC50 is 4.28.
On to `O=C(O)CNS(=O)(=O)c1ccc(NC(=O)c2cccc([N+](=O)[O-])c2)cc1`, for which the result was inactive.
On to `COc1cccc(C2c3cc4c(cc3OC(Nc3ccccc3)C2C)OCO4)c1O` (stereo not drawn), for which the pEC50 was less than 3.70 and the pIC50 was 5.45.
Consider `CC(=O)NC(CCC(=O)c1ccc(Cl)cc1Cl)C(=O)O` (stereo not drawn), for which the pEC50 was less than 3.70 and the pIC50 was less than 3.70.
Regarding `CCN(CC)CCN1C(=O)C(=O)N(c2cccc3ccccc23)C1=O`, the pEC50 is less than 3.70 and the pIC50 was less than 3.70.
In the case of `CCN(CC)/C(Sc1ccccc1)=C(\C(Cl)=C(Cl)Cl)[N+](=O)[O-]`, the pEC50 is less than 3.70 and the pIC50 is 4.91.
With `Nc1ccc(S2(c3ccc(N)cc3)C=C(c3ccccc3)C(c3ccccc3)=C2)cc1`, the pEC50 is less than 3.70 and the pIC50 was less than 3.70.
With `CC(C)=CCC/C(C)=C/CC/C(C)=C/C(O)c1ccccc1` (stereo not drawn), the pEC50 is less than 4.30 and the pIC50 was less than 4.30.
On to `CC1(C)CCC2=C(O1)C(=O)c1ccccc1C2=O`, for which the pEC50 was less than 3.70; the pIC50 is 4.74 and 4.84.
Consider `O=C(c1ccccc1F)c1c(NCc2ccccc2)c(=O)c1=O`, for which the pEC50 was 4.27 and the pIC50 is 3.99.
The corresponding values for `O=C1C=CC2(CCC23C=CC(=O)O3)O1` (stereo not drawn) are less than 3.87 and 5.10.
The corresponding values for `c1ccc2oc(-c3ccc(-c4nc5ccccc5o4)c4c3CC4)nc2c1` are less than 4.30 and less than 4.30.
As for `C1OC2OCC1O2`, the pEC50 was less than 2.61 and the pIC50 is less than 2.61.
Turning to `O=C(O)CCSC(=O)Nc1cccc([N+](=O)[O-])c1`, the outcome was inactive.
With `CC(=O)C(N=Nc1nc2ccccc2[nH]1)C(C)=O`, the pEC50 was less than 3.70 and the pIC50 is 4.70.
As to `O=c1[nH]c2[nH]c(-c3ccc(Br)cc3)cc2c2ccccc12`, the pEC50 was less than 3.70 and the pIC50 was less than 3.70.
Turning to `CC(=O)OC[C@H]1CN(OC(C)=O)C[C@@H](n2cc(C)c(=O)[nH]c2=O)O1`, the pEC50 was less than 3.70 and the pIC50 is less than 3.70.
Turning to `O=C1c2ccccc2C(=O)N1CSS(=O)(=O)O`, the pEC50 was less than 3.70 and the pIC50 was less than 3.70.
With `Cc1ccc(S(=O)(=O)OCCOS(=O)(=O)c2ccc(C)cc2)cc1`, the pEC50 was less than 4.44 and the pIC50 is less than 4.44.
For the compound `O=C1CCC2(c3ccccc3)Nc3ccc(Cl)cc3N12` (stereo not drawn), the outcome was inactive.
Consider `O=C(Nc1nc(C23CC4CC(CC(C4)C2)C3)cs1)c1cc2ccccc2oc1=O`, for which the pEC50 was less than 3.70 and the pIC50 is less than 3.70.
Take `CNCC(OB(c1ccccc1)c1ccccc1)c1ccccc1` (stereo not drawn): the pEC50 is less than 3.70 and the pIC50 was 4.22.
Take `C/C(CC1(O)C(=O)Nc2ccccc21)=N\O` (stereo not drawn): the pEC50 was less than 3.70 and the pIC50 is less than 3.70.
On to `O=C(CC1=NC2NN(c3ccccc3)C(=O)C2=C1CC(=O)c1ccccc1)c1ccccc1` (stereo not drawn), for which the pEC50 is less than 3.24 and the pIC50 was 3.76.
As for `O=C1Nc2ncnn2C1=O`, the pEC50 is less than 4.28 and the pIC50 is less than 4.28.
With `Cn1c(=O)c2c(ncn2CCNC(CO)C(O)c2ccc([N+](=O)[O-])cc2)n(C)c1=O` (stereo not drawn), the pEC50 was less than 3.70 and the pIC50 is less than 3.70.
Consider `O=C(CC(=O)CC(O)(C(F)(F)F)C(F)(F)F)CC(O)(C(F)(F)F)C(F)(F)F`, for which the pEC50 is less than 3.70 and the pIC50 was 4.98.
Regarding `CCCCN1[C@@H](C)C=C[C@@H](C)S1=O` (stereo partly drawn), the outcome was inactive.
`CC1(C)OC(C[C@]2(C#N)C[C@H](CCl)OC(C)(C)O2)C[C@@H](C[C@]2(C#N)C[C@H](CCl)OC(C)(C)O2)O1` (stereo partly drawn): the pEC50 was less than 3.70 and the pIC50 was 4.17.
The corresponding values for `CC1NOC(=O)C1N=Nc1cccc(Cl)c1` (stereo not drawn) are 5.28 and 4.52.
Take `CC1=N/C(=C\c2ccco2)C(=O)O1`: the pEC50 is less than 3.27 and the pIC50 was less than 3.27.
For `CC1=C[C@H]2O[C@@H]3C[C@H]4OC(=O)/C=C\C=C\C(C(C)O)OCC[C@@H](C)[C@H](O)C(=O)OC[C@@]2(CC1)[C@]4(C)[C@]31CO1` (stereo partly drawn), the pEC50 is less than 7.32 and the pIC50 is 9.99.
Take `Cn1nc(-c2ccccc2)c2c(/C=C/c3ccc(F)cc3)onc2c1=O`: the pEC50 is less than 4.41 and the negative-log IC50 (pIC50) was less than 4.41.
Take `Nc1nc2nc3c(nc2c(=O)[nH]1)CN(C1CCCCC1)C3=O`: the pEC50 was less than 4.13 and the pIC50 is less than 4.13.
Turning to `O=C(NI1OC(=O)c2ccccc21)c1ccc(Cl)cc1`, the pEC50 was less than 3.82 and the pIC50 was 4.07.
As to `O=C(CC(=O)c1cccnc1)NC(=O)c1ccccc1`, the pEC50 is less than 3.45 and the pIC50 is less than 3.45.
Take `CCc1cccc(CC)c1NC(=O)C1=C(C)NC(C)=C(C(=O)Nc2c(CC)cccc2CC)C1c1ccc2c(c1)OCO2`: the pEC50 was less than 4.35 and the pIC50 was 4.63.
As to `CCOC(=O)C1(c2ccccc2)CCNC(=O)CC1` (stereo not drawn), the pEC50 was less than 3.02 and the pIC50 was less than 3.02.
Turning to `Cc1cccc(C(=O)c2cccc3ccccc23)c1C(=O)O`, the outcome was inactive.
Regarding `COc1cc2c(c(OC)c1)C1(CC(CC#N)C2)SCCS1` (stereo not drawn), the result was inactive.
For the compound `O=C(O)c1cc[c]([Sb](=[O])([OH])[OH])cc1`, the pEC50 was 4.53 and the pIC50 was less than 3.70.
As to `CCCCCCCSc1nc2c(C(=O)OCC)ncn2c2ccccc12`, the pEC50 was less than 4.71 and the pIC50 is less than 4.71.
As for `N#C/C(=C\c1ccccc1)c1cccc(F)c1`, the pEC50 was less than 3.70 and the pIC50 is 4.33.
Turning to `CCOC(=O)/C(ON)=C(/CC/C(C(=O)OC)=C(\ON)C(=O)OCC)C(=O)OC`, the pEC50 was 3.81 and the pIC50 is 3.21.
Take `Clc1ccc(C2=Nc3ccccc3SC(c3ccc(Cl)c(Cl)c3)C2)c(Cl)c1` (stereo not drawn): the pEC50 was less than 4.80 and the pIC50 is less than 4.80.
With `Nc1cc2cc([N+](=O)[O-])ccc2oc1=O`, the pEC50 is less than 3.75 and the pIC50 is less than 3.75.
In the case of `Cn1cc2ccccc2c1-c1nc(F)nc(Oc2ccc3c(c2)CC[C@@H]2C3CC[C@@]3(C)C2CC[C@@H]3O)n1` (stereo partly drawn), the pEC50 was less than 5.26 and the negative logarithm of the IC50 (pIC50) is less than 5.26.
Regarding `Fc1ccc(-c2sc(-c3cccs3)cc2Cc2cccs2)cc1`, the result was inactive.
On to `[N-]=[N+]=CC(=O)OC(CCl)CCl`, for which the pEC50 is less than 3.70 and the pIC50 was less than 3.70.
As for `O=[N+]([O-])C(=C/c1ccccc1)/C(=C\c1ccccc1)[N+](=O)[O-]`, the pEC50 is less than 3.70 and the negative-log IC50 (pIC50) was 4.81.
With `[O-][n+]1onc2ncccc21`, the pEC50 is less than 3.86 and the pIC50 was 4.71.
In the case of `O=C(Cn1c2ccc(Br)cc2c2nc3ccccc3nc21)NC1CCCCC1`, the pEC50 is less than 4.00 and the pIC50 was less than 4.00.
As for `O=C(OCc1ccccc1)N1N=NC2C3CC(OCc4ccccc4)(OCc4ccccc4)C(O3)C21` (stereo not drawn), the pEC50 was less than 4.97 and the pIC50 is less than 4.97.
For `Cc1cccc2c(=O)c3c(O)cc(O)cc3[nH]c12`, the pEC50 is less than 3.70 and the pIC50 is 4.84.
As for `O=C(Nc1ccc2c(O)c(N=Nc3ccccc3)c(S(=O)(=O)O)cc2c1)Nc1ccc2c(O)c(N=Nc3ccccc3)c(S(=O)(=O)O)cc2c1`, the pEC50 is 4.39; the pIC50 was 4.30 and 3.72.
With `CNC1C(OC2C(OC3C(O)C(O)C(O)C(O)C3O)OC(C)C2(O)CO)OC(CO)C(O)C1O` (stereo not drawn) (tested in a mixture with another compound), the result was inactive.
`COc1ccc(-c2c(N)n(-c3cccc(C(=O)O)c3)c(=O)c3cc([N+](=O)[O-])ccc23)cc1`: the pEC50 was less than 3.70 and the pIC50 was 3.89.
Regarding `O=Nc1c(O)cc(O)c2ccccc12`, the outcome was inactive.
Consider `CN1CCCN(C)CCCN(C)CCCN(C)CCC1`, for which the pEC50 was less than 4.00 and the pIC50 is less than 4.00.
Take `Cc1c(NC=C(C#N)C#N)c(=O)n(-c2ccccc2)n1C`: the pEC50 is less than 3.70 and the pIC50 is less than 3.70.
For the compound `C=CCCCCC1CCC2CCC(CCCCC=C)N12` (stereo not drawn), the pEC50 is less than 4.02 and the pIC50 was 4.10.
Take `COc1ccc(N=Nc2c(C)c(C#N)c(=S)n(C3OC(COC(C)=O)C(OC(C)=O)C(OC(C)=O)C3OC(C)=O)c2C)cc1` (stereo not drawn): the pEC50 is less than 3.70 and the pIC50 is less than 3.70.
Consider `CC(OC(C)(C)C)C(NC(=O)C(Cc1ccccc1)NC(=O)C(NC(=O)C(CCCCNC(=O)OC(C)(C)C)NC(=O)C(Cc1c[nH]c2ccccc12)C(=O)NC(Cc1ccccc1)NC(=O)C(Cc1ccccc1)NC(=O)C(CC(N)=O)NC(=O)C(N)CCCCNC(=O)OC(C)(C)C)C(C)OC(C)(C)C)C(=O)NC(COC(C)(C)C)C(=O)NC(CSC(C)(C)C)C(=O)OC(C)(C)C` (stereo not drawn), for which the pEC50 is 4.06 and the pIC50 is less than 3.70.
Consider `C[n+]1ccccc1-c1nc(-c2cccc[n+]2C)nc(-c2cccc[n+]2C)n1`, for which the pEC50 is less than 3.70 and the pIC50 was less than 3.70.
In the case of `COC(=O)NC1=Nc2ccccc2C(=O)NN1`, the pEC50 was less than 3.70 and the pIC50 was less than 3.70.
For `Cc1cc(O)c(/C=N/C(=S)Nc2ccc(S(N)(=O)=O)cc2)c(=O)o1`, the pEC50 was less than 3.70 and the pIC50 is less than 3.70.
Consider `Cc1cn(C2CC(N=[N+]=[N-])C(COC(=O)CCCCCCCCCCN=[N+]=[N-])O2)c(=O)[nH]c1=O` (stereo not drawn), for which the pEC50 is 7.41 and the pIC50 was 4.54.
As to `CCOC(=O)C(O)(NC(=O)Nc1ccc(F)cc1)C(F)(F)F` (stereo not drawn), the pEC50 is less than 3.70 and the pIC50 was less than 3.70.
For `Clc1ccc(C2=CC(c3ccccc3)N3C(=N[C@H]4CCCC[C@@H]43)N2)cc1` (stereo partly drawn), the pEC50 is less than 4.00 and the pIC50 is 5.33.
